According to BindingDB's records for doi:10.1021/cb900218c (Case Western Reserve University, 2010):

Assays:
Experiment in all cases: colorimetric ATPase assay
[1] = biological target: T1, Sliding-clamp-loader large/small subunit (Enterobacteria phage T4, UniProt P04526+P04527); conditions: pH 7.5; 25 °C
T1 sequence (P04526 whole entry): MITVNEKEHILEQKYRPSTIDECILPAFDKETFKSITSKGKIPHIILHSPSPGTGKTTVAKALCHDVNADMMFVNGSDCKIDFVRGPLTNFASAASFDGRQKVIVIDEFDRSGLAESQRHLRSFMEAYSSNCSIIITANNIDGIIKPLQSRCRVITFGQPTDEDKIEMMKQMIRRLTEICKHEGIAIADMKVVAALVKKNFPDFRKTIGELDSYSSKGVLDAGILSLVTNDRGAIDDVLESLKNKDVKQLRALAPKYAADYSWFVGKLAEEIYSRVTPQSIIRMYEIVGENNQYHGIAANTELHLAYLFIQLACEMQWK
T1 sequence (P04527 whole entry): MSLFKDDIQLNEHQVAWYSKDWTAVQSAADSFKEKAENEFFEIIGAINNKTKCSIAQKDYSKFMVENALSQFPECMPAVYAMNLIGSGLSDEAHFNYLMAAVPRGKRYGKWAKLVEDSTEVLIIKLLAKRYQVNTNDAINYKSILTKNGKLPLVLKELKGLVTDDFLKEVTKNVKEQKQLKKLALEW
Description: (§1) ATPase assay contained 10 mM Mg2+, 1uM 13/20 DNA, 500uM (r)NTP or (d)NTP, 500 nM gp45, and 500 nM gp44/62 in T4 buffer. ATPase activity was measured by monitoring the release of Pi using a malachite green assay (31) or via the hydrolysis of [gamma-32P]-ATP.

[2] = biological target: DNA polymerase III subunit tau (Escherichia coli, UniProt P06710); conditions: pH 7.5; 37 °C
Chain of DNA polymerase III subunit tau (P06710 whole entry): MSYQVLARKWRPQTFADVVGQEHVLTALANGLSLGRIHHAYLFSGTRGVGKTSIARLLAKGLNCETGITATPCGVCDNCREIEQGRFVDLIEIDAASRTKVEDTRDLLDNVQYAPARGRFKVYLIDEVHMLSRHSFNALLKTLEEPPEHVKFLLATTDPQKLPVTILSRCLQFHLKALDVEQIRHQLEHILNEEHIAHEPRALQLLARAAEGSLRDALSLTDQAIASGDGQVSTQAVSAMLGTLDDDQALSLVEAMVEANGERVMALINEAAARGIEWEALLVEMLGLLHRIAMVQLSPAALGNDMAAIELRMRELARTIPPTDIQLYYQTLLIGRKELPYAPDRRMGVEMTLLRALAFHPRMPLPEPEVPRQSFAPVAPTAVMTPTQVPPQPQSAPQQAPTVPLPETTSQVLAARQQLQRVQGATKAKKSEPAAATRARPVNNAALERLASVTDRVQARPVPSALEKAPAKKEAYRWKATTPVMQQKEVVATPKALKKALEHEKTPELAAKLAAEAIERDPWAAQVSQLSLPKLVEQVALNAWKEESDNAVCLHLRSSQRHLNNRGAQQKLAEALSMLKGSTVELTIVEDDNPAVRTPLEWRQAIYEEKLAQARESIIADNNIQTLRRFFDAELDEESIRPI

[3] = biological target: Complex of Sliding-clamp-loader large subunit [R175L] and Sliding-clamp-loader small subunit (Enterobacteria phage T4, UniProt P04526, R175L); conditions: pH 7.5; 25 °C
Chain of Complex of Sliding-clamp-loader large subunit [R175L] and Sliding-clamp-loader small subunit (P04526 as listed by the source R175L): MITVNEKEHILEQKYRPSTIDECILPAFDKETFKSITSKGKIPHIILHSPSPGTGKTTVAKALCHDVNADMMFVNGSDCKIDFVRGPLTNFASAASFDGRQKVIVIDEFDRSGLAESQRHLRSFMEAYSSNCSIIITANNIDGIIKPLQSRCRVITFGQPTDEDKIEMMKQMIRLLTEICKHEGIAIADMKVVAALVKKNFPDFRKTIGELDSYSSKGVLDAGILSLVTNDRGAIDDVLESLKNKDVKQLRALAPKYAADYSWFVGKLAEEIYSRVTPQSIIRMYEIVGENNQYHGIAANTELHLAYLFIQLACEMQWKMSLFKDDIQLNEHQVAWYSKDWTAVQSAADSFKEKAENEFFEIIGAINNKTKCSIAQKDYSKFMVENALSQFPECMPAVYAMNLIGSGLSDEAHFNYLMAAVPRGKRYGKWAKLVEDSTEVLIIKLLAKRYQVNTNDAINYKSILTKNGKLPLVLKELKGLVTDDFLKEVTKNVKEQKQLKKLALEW
Description: as §1

[4] = biological target: Complex of Sliding-clamp-loader large subunit [R175K] and Sliding-clamp-loader small subunit (Enterobacteria phage T4, UniProt P04526, R175K); conditions: pH 7.5; 25 °C
Chain of Complex of Sliding-clamp-loader large subunit [R175K] and Sliding-clamp-loader small subunit (P04526 as listed by the source R175K): as the sequence (P04526 as listed by the source R175L) above, with L175K counted along it
Description: as §1

With O=P(O)(O)OP(=O)(O)OP(=O)(O)OC[C@H]1O[C@@H](n2ccc3cc(C4CCCCC4)ccc32)C[C@@H]1O [5-cyclohexyl-indolyl-2'-deoxyriboside triphosphate] the Ki [1] was 47.5 µM and the Ki [2] was 24 µM.

With C=Cc1ccc2c(ccn2[C@H]2C[C@H](O)[C@@H](COP(=O)(O)OP(=O)(O)OP(=O)(O)O)O2)c1 [5-ethylene-indolyl-2'-deoxyriboside triphosphate] the Ki [1] was > 200 µM, the Ki [3] was 34 µM and the Ki [4] was 26.2 µM. It also gave a Ki [2] of 30 µM.

For Nc1ncnc2c1ncn2C1OC(COP(=O)(O)OP(=O)(O)OP(O)(O)=S)[C@@H](O)[C@H]1O (stereo partly specified) [ATP{gamma}S], the Ki [1] was 28.9 µM, the Ki [3] was 33.2 µM and the Ki [4] was 14 µM. It also gave a Ki [2] of 13 µM.

For O=[N+]([O-])c1ccc2c(ccn2[C@H]2C[C@H](O)[C@@H](COP(=O)(O)OP(=O)(O)OP(=O)(O)O)O2)c1 [5-nitro-indolyl-2'-deoxyriboside triphosphate], the Ki [2] was 21.7 µM.

O=P(O)(O)OP(=O)(O)OP(=O)(O)OC[C@H]1O[C@@H](n2ccc3cc(C4=CCCCC4)ccc32)C[C@@H]1O [5-cyclohexene-indolyl-2'-deoxyriboside triphosphate] showed a Ki [1] of 10 µM and a Ki [2] of 11.8 µM.

Work on CCc1ccc2c(ccn2[C@H]2C[C@H](O)[C@@H](COP(=O)(O)OP(=O)(O)OP(=O)(O)O)O2)c1 [5-ethyl-indolyl-2'-deoxyriboside triphosphate] yielded a Ki [1] of 81.5 µM, a Ki [3] of 11 µM and a Ki [4] of 25.2 µM. For the same compound, the Ki [2] was 9 µM.

With O=P(O)(O)OP(=O)(O)OP(=O)(O)OC[C@H]1O[C@@H](n2ccc3cc(F)ccc32)C[C@@H]1O [5-fluoro-indolyl-2'-deoxyriboside triphosphate] the Ki [1] was > 200 µM and the Ki [2] was 34 µM.

Work on O=P(O)(O)OP(=O)(O)OP(=O)(O)OC[C@H]1O[C@@H](n2ccc3cc(-c4ccccc4)ccc32)C[C@@H]1O [5-phenyl-indolyl-2'-deoxyriboside triphosphate] yielded a Ki [1] of 42 µM and a Ki [2] of 7.5 µM.

Work on O=[N+]([O-])c1ccc2ccn([C@H]3C[C@H](O)[C@@H](COP(=O)(O)OP(=O)(O)OP(=O)(O)O)O3)c2c1 [6-nitro-indolyl-2'-deoxyriboside triphosphate] yielded a Ki [1] of 5.1 µM, a Ki [3] of 5 µM and a Ki [4] of 9.1 µM. For the same compound, the Ki [2] was 8.1 µM.

Nc1ccc2c(ccn2[C@H]2C[C@H](O)[C@@H](COP(=O)(O)OP(=O)(O)OP(=O)(O)O)O2)c1 [5-amino-indolyl-2'-deoxyriboside triphosphate] was tested, and the Ki [1] was > 200 µM and the Ki [2] was 45 µM.

With O=[N+]([O-])c1cccc2c1ccn2[C@H]1C[C@H](O)[C@@H](COP(=O)(O)OP(=O)(O)OP(=O)(O)O)O1 [4-nitro-indolyl-2'-deoxyriboside triphosphate] the Ki [1] was 34.2 µM, the Ki [3] was 41.6 µM and the Ki [4] was 30.2 µM. It also gave a Ki [2] of 11.1 µM.
